± gives the expanded uncertainty stated by the source.
Assay: xn = mol fraction of the nth substance listed
Details: 101 kPa, Liquid, Vibrating tube method

## OCC(O)CO [glycerol] + O
274.15 K, x1 = 0.00209
  mass density: 1002.52 ± 0.1 kg/m3
274.15 K, x1 = 0.00439
  mass density: 1005.4 ± 0.1 kg/m3
274.15 K, x1 = 0.0051
  mass density: 1006.27 ± 0.1 kg/m3
274.15 K, x1 = 0.00657
  mass density: 1008.08 ± 0.11 kg/m3
274.15 K, x1 = 0.01072
  mass density: 1013.09 ± 0.11 kg/m3
274.15 K, x1 = 0.01633
  mass density: 1019.67 ± 0.11 kg/m3
275.15 K, x1 = 0.00209
  mass density: 1002.55 ± 0.1 kg/m3
275.15 K, x1 = 0.00439
  mass density: 1005.42 ± 0.1 kg/m3
275.15 K, x1 = 0.0051
  mass density: 1006.29 ± 0.1 kg/m3
275.15 K, x1 = 0.00657
  mass density: 1008.09 ± 0.12 kg/m3
275.15 K, x1 = 0.01072
  mass density: 1013.08 ± 0.11 kg/m3
275.15 K, x1 = 0.01633
  mass density: 1019.63 ± 0.11 kg/m3
276.15 K, x1 = 0.00209
  mass density: 1002.56 ± 0.1 kg/m3
276.15 K, x1 = 0.00439
  mass density: 1005.42 ± 0.1 kg/m3
276.15 K, x1 = 0.0051
  mass density: 1006.29 ± 0.1 kg/m3
276.15 K, x1 = 0.00657
  mass density: 1008.08 ± 0.11 kg/m3
276.15 K, x1 = 0.01072
  mass density: 1013.06 ± 0.11 kg/m3
276.15 K, x1 = 0.01633
  mass density: 1019.58 ± 0.11 kg/m3
277.15 K, x1 = 0.00209
  mass density: 1002.56 ± 0.1 kg/m3
277.15 K, x1 = 0.00439
  mass density: 1005.41 ± 0.1 kg/m3
277.15 K, x1 = 0.0051
  mass density: 1006.27 ± 0.1 kg/m3
277.15 K, x1 = 0.00657
  mass density: 1008.06 ± 0.11 kg/m3
277.15 K, x1 = 0.01072
  mass density: 1013.02 ± 0.11 kg/m3
277.15 K, x1 = 0.01633
  mass density: 1019.51 ± 0.11 kg/m3
278.15 K, x1 = 0.00209
  mass density: 1002.54 ± 0.1 kg/m3
278.15 K, x1 = 0.00439
  mass density: 1005.38 ± 0.1 kg/m3
278.15 K, x1 = 0.0051
  mass density: 1006.24 ± 0.1 kg/m3
278.15 K, x1 = 0.00657
  mass density: 1008.02 ± 0.11 kg/m3
278.15 K, x1 = 0.01072
  mass density: 1012.95 ± 0.11 kg/m3
278.15 K, x1 = 0.01633
  mass density: 1019.43 ± 0.11 kg/m3
278.15 K, x1 = 0.03504
  mass density: 1039.54 ± 0.11 kg/m3
278.15 K, x1 = 0.05086
  mass density: 1054.94 ± 0.12 kg/m3
278.15 K, x1 = 0.06775
  mass density: 1069.92 ± 0.13 kg/m3
278.15 K, x1 = 0.1127
  mass density: 1103.61 ± 0.14 kg/m3
278.15 K, x1 = 0.1559
  mass density: 1129.3 ± 0.15 kg/m3
278.15 K, x1 = 0.206
  mass density: 1153.22 ± 0.16 kg/m3
278.15 K, x1 = 0.256
  mass density: 1172.3 ± 0.16 kg/m3
278.15 K, x1 = 0.3311
  mass density: 1194.33 ± 0.17 kg/m3
278.15 K, x1 = 0.4012
  mass density: 1210 ± 0.17 kg/m3
278.15 K, x1 = 0.4907
  mass density: 1225.46 ± 0.18 kg/m3
278.15 K, x1 = 0.5828
  mass density: 1237.72 ± 0.18 kg/m3
278.15 K, x1 = 0.6857
  mass density: 1248.63 ± 0.18 kg/m3
278.15 K, x1 = 0.7494
  mass density: 1254.28 ± 0.19 kg/m3
278.15 K, x1 = 0.8101
  mass density: 1259.12 ± 0.2 kg/m3
278.15 K, x1 = 0.8528
  mass density: 1262.2 ± 0.2 kg/m3
278.15 K, x1 = 0.882
  mass density: 1264.21 ± 0.21 kg/m3
278.15 K, x1 = 0.9143
  mass density: 1266.2 ± 0.21 kg/m3
278.15 K, x1 = 0.9408
  mass density: 1267.71 ± 0.21 kg/m3
278.15 K, x1 = 0.9578
  mass density: 1268.67 ± 0.22 kg/m3
278.15 K, x1 = 0.9792
  mass density: 1269.86 ± 0.22 kg/m3
278.15 K, x1 = 0.9895
  mass density: 1270.39 ± 0.22 kg/m3
278.15 K, x1 = 1
  mass density: 1270.87 ± 0.22 kg/m3
279.15 K, x1 = 0.00209
  mass density: 1002.51 ± 0.1 kg/m3
279.15 K, x1 = 0.00439
  mass density: 1005.34 ± 0.1 kg/m3
279.15 K, x1 = 0.0051
  mass density: 1006.19 ± 0.1 kg/m3
279.15 K, x1 = 0.00657
  mass density: 1007.97 ± 0.11 kg/m3
279.15 K, x1 = 0.01072
  mass density: 1012.88 ± 0.11 kg/m3
279.15 K, x1 = 0.01633
  mass density: 1019.34 ± 0.11 kg/m3
280.15 K, x1 = 0.00209
  mass density: 1002.46 ± 0.1 kg/m3
280.15 K, x1 = 0.00439
  mass density: 1005.28 ± 0.1 kg/m3
280.15 K, x1 = 0.0051
  mass density: 1006.13 ± 0.1 kg/m3
280.15 K, x1 = 0.00657
  mass density: 1007.91 ± 0.11 kg/m3
280.15 K, x1 = 0.01072
  mass density: 1012.8 ± 0.11 kg/m3
280.15 K, x1 = 0.01633
  mass density: 1019.23 ± 0.11 kg/m3
281.15 K, x1 = 0.00209
  mass density: 1002.4 ± 0.1 kg/m3
281.15 K, x1 = 0.00439
  mass density: 1005.21 ± 0.1 kg/m3
281.15 K, x1 = 0.0051
  mass density: 1006.06 ± 0.1 kg/m3
281.15 K, x1 = 0.00657
  mass density: 1007.82 ± 0.11 kg/m3
281.15 K, x1 = 0.01072
  mass density: 1012.7 ± 0.11 kg/m3
281.15 K, x1 = 0.01633
  mass density: 1019.12 ± 0.11 kg/m3
282.15 K, x1 = 0.00209
  mass density: 1002.33 ± 0.1 kg/m3
282.15 K, x1 = 0.00439
  mass density: 1005.13 ± 0.1 kg/m3
282.15 K, x1 = 0.0051
  mass density: 1005.97 ± 0.1 kg/m3
282.15 K, x1 = 0.00657
  mass density: 1007.73 ± 0.11 kg/m3
282.15 K, x1 = 0.01072
  mass density: 1012.6 ± 0.11 kg/m3
282.15 K, x1 = 0.01633
  mass density: 1018.99 ± 0.11 kg/m3
283.15 K, x1 = 0.00209
  mass density: 1002.24 ± 0.1 kg/m3
283.15 K, x1 = 0.00439
  mass density: 1005.03 ± 0.1 kg/m3
283.15 K, x1 = 0.0051
  mass density: 1005.87 ± 0.11 kg/m3
283.15 K, x1 = 0.00657
  mass density: 1007.62 ± 0.11 kg/m3
283.15 K, x1 = 0.01072
  mass density: 1012.47 ± 0.11 kg/m3
283.15 K, x1 = 0.01633
  mass density: 1018.85 ± 0.11 kg/m3
288.15 K, x1 = 0.00209
  mass density: 1001.6 ± 0.1 kg/m3
288.15 K, x1 = 0.00439
  mass density: 1004.35 ± 0.1 kg/m3
288.15 K, x1 = 0.0051
  mass density: 1005.18 ± 0.11 kg/m3
288.15 K, x1 = 0.00657
  mass density: 1006.91 ± 0.11 kg/m3
288.15 K, x1 = 0.01072
  mass density: 1011.69 ± 0.11 kg/m3
288.15 K, x1 = 0.01633
  mass density: 1017.97 ± 0.11 kg/m3
288.15 K, x1 = 0.03504
  mass density: 1037.45 ± 0.11 kg/m3
288.15 K, x1 = 0.05086
  mass density: 1052.38 ± 0.12 kg/m3
288.15 K, x1 = 0.06775
  mass density: 1066.9 ± 0.12 kg/m3
288.15 K, x1 = 0.1127
  mass density: 1099.65 ± 0.14 kg/m3
288.15 K, x1 = 0.1559
  mass density: 1124.77 ± 0.15 kg/m3
288.15 K, x1 = 0.206
  mass density: 1148.15 ± 0.16 kg/m3
288.15 K, x1 = 0.256
  mass density: 1166.85 ± 0.16 kg/m3
288.15 K, x1 = 0.3311
  mass density: 1188.67 ± 0.17 kg/m3
288.15 K, x1 = 0.4012
  mass density: 1204.31 ± 0.17 kg/m3
288.15 K, x1 = 0.4907
  mass density: 1219.67 ± 0.18 kg/m3
288.15 K, x1 = 0.5828
  mass density: 1231.79 ± 0.18 kg/m3
288.15 K, x1 = 0.6857
  mass density: 1242.54 ± 0.18 kg/m3
288.15 K, x1 = 0.7494
  mass density: 1248.04 ± 0.19 kg/m3
288.15 K, x1 = 0.8101
  mass density: 1252.82 ± 0.2 kg/m3
288.15 K, x1 = 0.8528
  mass density: 1255.81 ± 0.2 kg/m3
288.15 K, x1 = 0.882
  mass density: 1257.79 ± 0.2 kg/m3
288.15 K, x1 = 0.9143
  mass density: 1259.78 ± 0.21 kg/m3
288.15 K, x1 = 0.9408
  mass density: 1261.27 ± 0.21 kg/m3
288.15 K, x1 = 0.9578
  mass density: 1262.21 ± 0.21 kg/m3
288.15 K, x1 = 0.9792
  mass density: 1263.39 ± 0.22 kg/m3
288.15 K, x1 = 0.9895
  mass density: 1263.91 ± 0.22 kg/m3
288.15 K, x1 = 1
  mass density: 1264.4 ± 0.22 kg/m3
293.15 K, x1 = 0.00209
  mass density: 1000.68 ± 0.1 kg/m3
293.15 K, x1 = 0.00439
  mass density: 1003.39 ± 0.1 kg/m3
293.15 K, x1 = 0.0051
  mass density: 1004.21 ± 0.11 kg/m3
293.15 K, x1 = 0.00657
  mass density: 1005.92 ± 0.11 kg/m3
293.15 K, x1 = 0.01072
  mass density: 1010.64 ± 0.11 kg/m3
293.15 K, x1 = 0.01633
  mass density: 1016.84 ± 0.11 kg/m3
293.15 K, x1 = 0.03504
  mass density: 1036.06 ± 0.11 kg/m3
293.15 K, x1 = 0.05086
  mass density: 1050.82 ± 0.12 kg/m3
293.15 K, x1 = 0.06775
  mass density: 1065.15 ± 0.12 kg/m3
293.15 K, x1 = 0.1127
  mass density: 1097.5 ± 0.14 kg/m3
293.15 K, x1 = 0.1559
  mass density: 1122.35 ± 0.15 kg/m3
293.15 K, x1 = 0.206
  mass density: 1145.51 ± 0.16 kg/m3
293.15 K, x1 = 0.256
  mass density: 1164.09 ± 0.16 kg/m3
293.15 K, x1 = 0.3311
  mass density: 1185.75 ± 0.17 kg/m3
293.15 K, x1 = 0.4012
  mass density: 1201.28 ± 0.17 kg/m3
293.15 K, x1 = 0.4907
  mass density: 1216.63 ± 0.18 kg/m3
293.15 K, x1 = 0.5828
  mass density: 1228.62 ± 0.18 kg/m3
293.15 K, x1 = 0.6857
  mass density: 1239.29 ± 0.18 kg/m3
293.15 K, x1 = 0.7494
  mass density: 1244.78 ± 0.19 kg/m3
293.15 K, x1 = 0.8101
  mass density: 1249.51 ± 0.19 kg/m3
293.15 K, x1 = 0.8528
  mass density: 1252.47 ± 0.2 kg/m3
293.15 K, x1 = 0.882
  mass density: 1254.43 ± 0.2 kg/m3
293.15 K, x1 = 0.9143
  mass density: 1256.38 ± 0.21 kg/m3
293.15 K, x1 = 0.9408
  mass density: 1257.87 ± 0.21 kg/m3
293.15 K, x1 = 0.9578
  mass density: 1258.81 ± 0.21 kg/m3
293.15 K, x1 = 0.9792
  mass density: 1259.97 ± 0.22 kg/m3
293.15 K, x1 = 0.9895
  mass density: 1260.49 ± 0.22 kg/m3
293.15 K, x1 = 1
  mass density: 1260.99 ± 0.22 kg/m3
298.15 K, x1 = 0.00209
  mass density: 999.49 ± 0.1 kg/m3
